The subject of one test is MDA-MB-231 cells. In words: Inhibition of proliferation of triple-negative breast cancer cells, CellTiter-Glo. The conditions noted are these: Homo sapiens, 120 h; MDA-MB-231, cultured for 5 days. Format: cell-based. In outline: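 MDA-MB-231 cells pre-cultured 24 h (5% CO2, 37 °C), then exposed to compound for 5 days at 12 three-fold dilutions, final 10 μM to 0.05 nM. Viability read by CellTiter-Glo luminescence after 10 min at 37 °C; growth inhibition calculated relative to untreated solvent-control cells.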
For orientation: ATP-based viability assays read luminescence as a measure of living cells.

A further test has as its system SHP-77. Briefly: Inhibition of proliferation of small cell lung cancer cells, CellTiter-Glo. Format: cell-based. Particulars: Homo sapiens, SHP77, 120 h; SHP-77, cultured for 5 days. In outline: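 SHP-77 cells at 2,000–3,000 cells/well, cultured 24 h at 37° C, 5% CO2, then given 12 threefold compound dilutions, final 10 μM to 0.05 nM, for 5 days. Viability by CellTiter-Glo luminescence relative to solvent control. GI50 from concentration–response.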

For another test, the target named is T1, TTK (Homo sapiens, UniProt P33981).
T1 sequence (P33981 1-857): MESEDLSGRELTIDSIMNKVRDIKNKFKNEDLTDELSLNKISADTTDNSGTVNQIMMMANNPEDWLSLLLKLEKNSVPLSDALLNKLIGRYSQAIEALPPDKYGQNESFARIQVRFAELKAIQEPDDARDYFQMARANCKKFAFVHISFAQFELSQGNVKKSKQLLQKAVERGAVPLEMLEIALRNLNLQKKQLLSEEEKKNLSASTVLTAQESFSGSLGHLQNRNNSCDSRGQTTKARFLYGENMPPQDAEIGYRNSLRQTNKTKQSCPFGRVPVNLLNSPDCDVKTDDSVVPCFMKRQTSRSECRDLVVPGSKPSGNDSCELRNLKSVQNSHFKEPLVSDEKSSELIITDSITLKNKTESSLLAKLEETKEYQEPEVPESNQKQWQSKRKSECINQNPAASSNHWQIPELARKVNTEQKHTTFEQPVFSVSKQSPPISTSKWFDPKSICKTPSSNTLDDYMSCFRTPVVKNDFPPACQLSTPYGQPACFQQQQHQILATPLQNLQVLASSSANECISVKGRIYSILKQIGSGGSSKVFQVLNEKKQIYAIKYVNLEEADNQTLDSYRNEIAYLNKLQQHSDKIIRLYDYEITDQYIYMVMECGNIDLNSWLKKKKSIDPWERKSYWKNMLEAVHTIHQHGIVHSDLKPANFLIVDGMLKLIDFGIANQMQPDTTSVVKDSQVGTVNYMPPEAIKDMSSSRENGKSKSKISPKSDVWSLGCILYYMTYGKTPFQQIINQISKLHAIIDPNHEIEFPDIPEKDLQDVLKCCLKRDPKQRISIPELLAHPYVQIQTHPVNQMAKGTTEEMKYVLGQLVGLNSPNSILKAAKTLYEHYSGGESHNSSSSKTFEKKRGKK
Briefly: TTK enzyme activity, ADP-Glo kinase assay. Format: biochemical. More on the design: purchased SignalChem T20-10G. The conditions noted are these: purified human TTK, ATP 10 μM, 25° C., 2 hours. In outline:
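Purified human TTK (25 ng) incubated with 10 μM ATP and substrate (0.2 μg) for 2 h at 25 °C in Tris-HCl pH 7.4, MgCl2, BSA, DTT buffer. ADP formation read by ADP-Glo; inhibition calculated against untreated solvent control.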
On the technique in general: ADP-Glo first removes unused ATP, then detects ADP through luciferase.

Structures are written as SMILES.

In patent US20230183243A1, “HETEROARYL DERIVATIVES AND PHARMACEUTICAL COMPOSITION COMPRISING SAME AS ACTIVE INGREDIENT” (VORONOI INC., priority 2019, published 2023) one finds GI50 and IC50 data, which are given here for 18 molecules.

What is called GI50 is the concentration giving 50% growth inhibition. The IC50 is the concentration needed to halve the response being measured. Low values mean greater potency in that assay, high ones weaker potency in that assay. Regarding `COc1cc(-c2cccc(O)c2)ccc1Nc1nc(NC2CCOCC2)c2c(C#N)c[nH]c2n1` [Example 141, 2-((3′-hydroxy-3-methoxy-[1,1′-biphenyl]-4-yl)amino)-4-((tetrahydro-2H-pyran-4-yl)amino)-7H-pyrrolo[2,3-d] pyrimidine-5-carbonitrile], the GI50 in the test with MDA-MB-231 cells and in the test with SHP-77 was under 100 nM each time. Also, the IC50 at TTK was under 50 nM.

As for `C=CC(=O)Nc1cc(-c2ccnn2C)ccc1Nc1nc(NC2CCCC2)c2c(C#N)c[nH]c2n1` [Example 142, N-(2-((5-cyano-4-(cyclopentylamino)-7H-pyrrolo[2,3-d]pyrimidin-2-yl)amino)-5-(1-methyl-1H-pyrazol-5-yl)phenyl)acrylamide], the GI50 with MDA-MB-231 cells and in the test on SHP-77 was 100 to 1000 nM throughout. The IC50 at TTK was under 50 nM.

Regarding `COc1cc(-c2nncn2C)ccc1Nc1nc(NC2CCOC(C)(C)C2)c2c(C#N)c[nH]c2n1` (stereo not drawn) [Example 143, 4-((2,2-dimethyltetrahydro-2H-pyran-4-yl)amino)-2-((2-methoxy-4-(4-methyl-4H-1,2,4-triazol-3-yl)phenyl)amino)-7H-pyrrolo[2,3-d] pyrimidine-5-carbonitrile], the GI50 in the test with MDA-MB-231 cells and in the test with SHP-77 was under 100 nM each time. The same molecule gave an IC50 against TTK of under 50 nM.

As for `COc1cc(-c2cnn(C)c2)ccc1Nc1nc(NC2CCOC(C)(C)C2)c2c(C#N)c[nH]c2n1` (stereo not drawn) [Example 144, 4-((2,2-dimethyltetrahydro-2H-pyran-4-yl)amino)-2-((2-methoxy-4-(1-methyl-1H-pyrazol-4-yl)phenyl)amino)-7H-pyrrolo[2,3-d] pyrimidine-5-carbonitrile], the GI50 in the test with MDA-MB-231 cells and in the test on SHP-77 was under 100 nM each time. The same molecule gave an IC50 at TTK of under 50 nM.

With `Cn1cc(-c2ccc(Nc3nc(NC4CCOC(C)(C)C4)c4c(C#N)c[nH]c4n3)c3c2OCCO3)cn1` (stereo not drawn) [Example 145, 4-((2,2-dimethyltetrahydro-2H-pyran-4-yl)amino)-2-((8-(1-methyl-1H-pyrazol-4-yl)-2,3-dihydrobenzo[b][1,4]dioxin-5-yl)amino)-7H-pyrrolo[2,3-d] pyrimidine-5-carbonitrile], the GI50 with MDA-MB-231 cells and in the test with SHP-77 was under 100 nM in each case. Further, on TTK, the IC50 is under 50 nM.

As to `COc1cc(-c2c(C)noc2C)ccc1Nc1nc(NC2C[C@H]3CC[C@@H]2C3)c2c(C#N)c[nH]c2n1` (stereo partly drawn) [Example 146, 4-(((1R,4S)-bicyclo[2.2.1]heptan-2-yl)amino)-2-((4-(3,5-dimethylisoxazol-4-yl)-2-methoxyphenyl)amino)-7H-pyrrolo[2,3-d] pyrimidine-5-carbonitrile], the GI50 with MDA-MB-231 cells and in the test on SHP-77 was under 100 nM in each case. The molecule also gave an IC50 against TTK of under 50 nM.

For the molecule `Cn1cc(-c2ccc(Nc3nc(NC4C[C@H]5CC[C@@H]4C5)c4c(C#N)c[nH]c4n3)c3c2OCCO3)cn1` (stereo partly drawn) [Example 147, 4-(((1R,4S)-bicyclo[2.2.1]heptan-2-yl)amino)-2-((8-(1-methyl-1H-pyrazol-4-yl)-2,3-dihydrobenzo[b][1,4]dioxin-5-yl)amino)-7H-pyrrolo[2,3-d] pyrimidine-5-carbonitrile], the GI50 with MDA-MB-231 cells and with SHP-77 was under 100 nM each time. This molecule came in with an IC50 on TTK of under 50 nM.

In the case of `N#Cc1c[nH]c2nc(Nc3ccc(N4CCCC4=O)c4c3OCCO4)nc(NC3C[C@H]4CC[C@@H]3C4)c12` (stereo partly drawn) [Example 148, 4-(((1R,4S)-bicyclo[2.2.1]heptan-2-yl)amino)-2-((8-(2-oxopyrrolidin-1-yl)-2,3-dihydrobenzo[b][1,4]dioxin-5-yl)amino)-7H-pyrrolo[2,3-d] pyrimidine-5-carbonitrile], the GI50 with MDA-MB-231 cells and with SHP-77 was under 100 nM throughout. This molecule came in with an IC50 on TTK of under 50 nM.

Turning to `COc1cc(-c2c(C)noc2C)ccc1Nc1nc(NC2CCCCCC2)c2c(C#N)c[nH]c2n1` [Example 149, 4-(cycloheptylamino)-2-((4-(3,5-dimethylisoxazol-4-yl)-2-methoxyphenyl)amino)-7H-pyrrolo[2,3-d] pyrimidine-5-carbonitrile], the GI50 in the test with MDA-MB-231 cells and in the test on SHP-77 was under 100 nM in each case. In addition, the IC50 against TTK was 50 to 200 nM.

In the case of `Cn1cc(-c2ccc(Nc3nc(NC4CCCCCC4)c4c(C#N)c[nH]c4n3)c3c2OCCO3)cn1` [Example 150, 4-(cycloheptylamino)-2-((8-(1-methyl-1H-pyrazol-4-yl)-2,3-dihydrobenzo[b][1,4]dioxin-5-yl)amino)-7H-pyrrolo[2,3-d] pyrimidine-5-carbonitrile], the GI50 in the test on MDA-MB-231 cells and in the test with SHP-77 was under 100 nM in each case. Also, the IC50 against TTK lay in the range of 50 to 200 nM.

Consider `N#Cc1c[nH]c2nc(Nc3ccc(N4CCCC4=O)c4c3OCCO4)nc(NC3CCCCCC3)c12` [Example 151, 4-(cycloheptylamino)-2-((8-(2-oxopyrrolidin-1-yl)-2,3-dihydrobenzo[b][1,4]dioxin-5-yl)amino)-7H-pyrrolo[2,3-d] pyrimidine-5-carbonitrile], for which the GI50 in the test on MDA-MB-231 cells and in the test on SHP-77 was under 100 nM each time. On TTK, this molecule gave an IC50 of under 50 nM.

In the case of `COc1cc(-c2ccnn2C)ccc1Nc1nc(NC2CCCC(F)(F)C2)c2c(C#N)c[nH]c2n1` (stereo not drawn) [Example 152, 4-((3,3-difluorocyclohexyl)amino)-2-((2-methoxy-4-(1-methyl-1H-pyrazol-5-yl)phenyl)amino)-7H-pyrrolo[2,3-d] pyrimidine-5-carbonitrile], the GI50 in the test on MDA-MB-231 cells and in the test with SHP-77 was under 100 nM throughout. The IC50 against TTK lay within 50 to 200 nM.

Take `Cn1nccc1-c1ccc(Nc2nc(NC3CCCC(F)(F)C3)c3c(C#N)c[nH]c3n2)c2c1OCCO2` (stereo not drawn) [Example 153]: the GI50 in the test with MDA-MB-231 cells and in the test on SHP-77 was under 100 nM throughout. This molecule also yielded an IC50 against TTK of 50 to 200 nM.

Regarding `COc1cc(-c2nncn2C)ccc1Nc1nc(NC2CCCC(F)(F)C2)c2c(C#N)c[nH]c2n1` (stereo not drawn) [Example 154, 4-((3,3-difluorocyclohexyl)amino)-2-((2-methoxy-4-(4-methyl-4H-1,2,4-triazol-3-yl)phenyl)amino)-7H-pyrrolo[2,3-d] pyrimidine-5-carbonitrile], the GI50 with MDA-MB-231 cells and in the test on SHP-77 was under 100 nM in each case. Besides, at TTK, the 50% inhibitory concentration (IC50) is under 50 nM.

For the molecule `COc1cc(N2CCCCS2(=O)=O)ccc1Nc1nc(NC2CCCC2)c2c(C#N)c[nH]c2n1` [Example 155, 4-(cyclopentylamino)-2-((4-(1,1-dioxido-1,2-thiazinan-2-yl)-2-methoxyphenyl)amino)-7H-pyrrolo[2,3-d] pyrimidine-5-carbonitrile], the GI50 with MDA-MB-231 cells and in the test on SHP-77 was under 100 nM throughout. Besides, the IC50 on TTK is under 50 nM.

With `N#Cc1c[nH]c2nc(Nc3ccc(N4CCCCS4(=O)=O)cc3)nc(NC3CCCC3)c12` [Example 156, 4-(cyclopentylamino)-2-((4-(1,1-dioxido-1,2-thiazinan-2-yl)phenyl)amino)-7H-pyrrolo[2,3-d] pyrimidine-5-carbonitrile], the GI50 with MDA-MB-231 cells and in the test with SHP-77 was under 100 nM each time. The molecule also gave a half-inhibitory concentration (IC50) against TTK of under 50 nM.

Take `COc1cc(N2CCCS2(=O)=O)ccc1Nc1nc(NC2CCCC2)c2c(C#N)c[nH]c2n1` [Example 157, 4-(cyclopentylamino)-2-((4-(1,1-dioxidoisothiazolidin-2-yl)-2-methoxyphenyl)amino)-7H-pyrrolo[2,3-d] pyrimidine-5-carbonitrile]: the GI50 in the test with MDA-MB-231 cells and in the test on SHP-77 was under 100 nM in each case. Also, at TTK, the IC50 is under 50 nM.

In the case of `N#Cc1c[nH]c2nc(Nc3ccc(N4CCCS4(=O)=O)cc3)nc(NC3CCCC3)c12` [Example 158, 4-(cyclopentylamino)-2-((4-(1,1-dioxidoisothiazolidin-2-yl)phenyl)amino)-7H-pyrrolo[2,3-d] pyrimidine-5-carbonitrile], the GI50 with MDA-MB-231 cells and with SHP-77 was under 100 nM in each case. The IC50 against TTK is under 50 nM.
